What was measured:
MDA-MB-231 = assay: Antiproliferative activity against human MDA-MB-231 cells assessed as reduction in cell viability after 48 hrs by MTT assay; assay type: functional, cell-based; details: MDA-MB-231, 48 h
PANC-1 [1] = assay: Antiproliferative activity against human PANC-1 cells assessed as reduction in cell viability after 48 hrs by MTT assay; assay type: functional, cell-based; details: PANC-1, 48 h
MRC5 = assay: Antiproliferative activity against human MRC5 cells assessed as reduction in cell viability after 48 hrs by MTT assay; assay type: cell-based; details: MRC5, 48 h
MCF7 = assay: Antiproliferative activity against human MCF7 cells assessed as reduction in cell viability after 48 hrs by MTT assay; assay type: functional, cell-based; details: MCF7, 48 h
Caco-2 = assay: Antiproliferative activity against human Caco-2 cells assessed as reduction in cell viability after 48 hrs by MTT assay; assay type: functional, cell-based; details: Caco-2, 48 h
PANC-1 [2] = assay: Induction of cell cycle arrest in human PANC-1 cells assessed as accumulation of cells at S phase at 5 uM incubated for 48 hrs propidium iodide-A staining-based flow cytometric analysis (reference value: 44.71%); assay type: functional
PANC-1 [3] = assay: Induction of cell cycle arrest in human PANC-1 cells assessed as accumulation of cells at G2/M phase at 10 uM incubated for 48 hrs propidium iodide-A staining-based flow cytometric analysis (reference value: 6.71%); assay type: functional
PANC-1 [4] = assay: Induction of cell cycle arrest in human PANC-1 cells assessed as accumulation of cells at G2/M phase at 5 uM incubated for 48 hrs propidium iodide-A staining-based flow cytometric analysis (reference value: 6.71%); assay type: functional
PANC-1 [5] = assay: Induction of apoptosis in human PANC-1 cells assessed as viable cells at 10 uM incubated for 48 hrs by annexin V FITC and propidium iodide staining based flow cytometry analysis (reference value: 99.5%); assay type: functional; details: read-out: Activity
PANC-1 [6] = assay: Induction of cell cycle arrest in human PANC-1 cells assessed as accumulation of cells at S phase at 10 uM incubated for 48 hrs propidium iodide-A staining-based flow cytometric analysis (reference value: 44.71%); assay type: functional
PANC-1 [7] = assay: Induction of apoptosis in human PANC-1 cells assessed as increase in caspase 3 activity; assay type: functional, cell-based; details: dose 5-10 µM
PANC-1 [8] = assay: Induction of apoptosis in human PANC-1 cells assessed as viable cells at 5 uM incubated for 48 hrs by annexin V FITC and propidium iodide staining based flow cytometry analysis (reference value: 99.5%); assay type: functional; details: read-out: Activity
PANC-1 [9] = assay: Induction of cell cycle arrest in human PANC-1 cells assessed as accumulation of cells at G0/G1 phase at 10 uM incubated for 48 hrs propidium iodide-A staining-based flow cytometric analysis (reference value: 48.58%); assay type: functional
PANC-1 [10] = assay: Induction of cell cycle arrest in human PANC-1 cells assessed as accumulation of cells at G0/G1 phase at 5 uM incubated for 48 hrs propidium iodide-A staining-based flow cytometric analysis (reference value: 48.58%); assay type: functional
PANC-1 [11] = assay: Induction of apoptosis in human PANC-1 cells assessed as early apoptotic cells at 10 uM incubated for 48 hrs by annexin V FITC and propidium iodide staining based flow cytometry analysis (reference value: 0.2%); assay type: functional
PANC-1 [12] = assay: Induction of apoptosis in human PANC-1 cells assessed as necrotic cells at 10 uM incubated for 48 hrs by annexin V FITC and propidium iodide staining based flow cytometry analysis (reference value: 0%); assay type: functional
PANC-1 [13] = assay: Induction of apoptosis in human PANC-1 cells assessed as necrotic cells at 5 uM incubated for 48 hrs by annexin V FITC and propidium iodide staining based flow cytometry analysis (reference value: 0%); assay type: functional
PANC-1 [14] = assay: Induction of apoptosis in human PANC-1 cells assessed as increase in caspase 9 activity; assay type: functional, cell-based; details: dose 5-10 µM
PANC-1 [15] = assay: Induction of apoptosis in human PANC-1 cells assessed as early apoptotic cells at 5 uM incubated for 48 hrs by annexin V FITC and propidium iodide staining based flow cytometry analysis (reference value: 0.2%); assay type: functional
PANC-1 [16] = assay: Induction of apoptosis in human PANC-1 cells assessed as late apoptotic cells at 5 uM incubated for 48 hrs by annexin V FITC and propidium iodide staining based flow cytometry analysis (reference value: 0.1%); assay type: functional
PANC-1 [17] = assay: Induction of apoptosis in human PANC-1 cells assessed as late apoptotic cells at 10 uM incubated for 48 hrs by annexin V FITC and propidium iodide staining based flow cytometry analysis (reference value: 0.1%); assay type: functional

Row | Structure (SMILES) | IC50 (MDA-MB-231) [µM] | IC50 (PANC-1 [1]) [µM] | IC50 (MRC5) [µM] | IC50 (MCF7) [µM] | IC50 (Caco-2) [µM] | other results
1 | Fc1ccc2c(c1)Cc1c-2n[nH]c1-c1nnc(/C=C/c2ccccc2)o1 | 18 | 21.5 | 66 | 60.4 | 15.9 | 
2 | COc1ccc(/C=C/c2nnc(-c3[nH]nc4c3Cc3cc(F)ccc3-4)o2)cc1 | 37.2 | 39.9 | 52 | 63.8 | 15.6 | 
3 | COc1ccc(/C=C/c2nnc(-c3[nH]nc4c3Cc3cc(OC)c(OC)cc3-4)o2)cc1OC | 23.2 | > 100 | 63 | 14.5 | 22.7 | 
4 | COc1cc2c(cc1OC)-c1n[nH]c(-c3nnc(/C=C/c4ccccc4)o3)c1C2 | 11.5 | 30.9 | 65 | 32.9 | 15 | 
5 | COc1ccc2c(c1)Cc1c-2n[nH]c1-c1nnc(/C=C/c2ccc([N+](=O)[O-])cc2)o1 | 21.3 | 7.4 | 41 | 20.6 | 57.1 | Activity (PANC-1 [2]): 46.6%; Activity (PANC-1 [3]): 7.35%; Activity (PANC-1 [4]): 17.85%; viability at 10 µM (PANC-1 [5]): 60.3%; Activity (PANC-1 [6]): 59.87%; Activity (PANC-1 [7]): Dose-Dependent Effect; viability at 5 µM (PANC-1 [8]): 76.7%; Activity (PANC-1 [9]): 32.78%; Activity (PANC-1 [10]): 36.55%; Activity (PANC-1 [11]): 5.5%; Activity (PANC-1 [12]): 7.5%; Activity (PANC-1 [13]): 4.6%; Activity (PANC-1 [14]): Dose-Dependent Effect; Activity (PANC-1 [15]): 1.9%; Activity (PANC-1 [16]): 16.5%; Activity (PANC-1 [17]): 27.2%
6 | COc1ccc(/C=C/c2nnc(-c3[nH]nc4c3Cc3cc(OC)c(OC)cc3-4)o2)cc1 | 25 | 27.3 | 89 | 10.1 | 14.9 | 
7 | O=[N+]([O-])c1ccc(/C=C/c2nnc(-c3[nH]nc4c3Cc3cc(F)ccc3-4)o2)cc1 | 21.9 | 16.8 | 89 |  | > 100 | 
8 | C(=C\c1nnc(-c2[nH]nc3c2Cc2ccccc2-3)o1)/c1ccccc1 | 18.7 | > 50 | 45 | 22.7 | 14.8 | 
9 | COc1cc2c(cc1OC)-c1n[nH]c(-c3nnc(/C=C/c4ccc([N+](=O)[O-])cc4)o3)c1C2 | 16.3 | 4.3 | 49 | 20.2 | 20 | Activity (PANC-1 [2]): 53.38%; Activity (PANC-1 [3]): 2%; Activity (PANC-1 [4]): 4.26%; viability at 10 µM (PANC-1 [5]): 52.2%; Activity (PANC-1 [6]): 73.06%; Activity (PANC-1 [7]): Dose-Dependent Effect; viability at 5 µM (PANC-1 [8]): 64.1%; Activity (PANC-1 [9]): 24.94%; Activity (PANC-1 [10]): 42.09%; Activity (PANC-1 [11]): 2.5%; Activity (PANC-1 [12]): 10.3%; Activity (PANC-1 [13]): 1.2%; Activity (PANC-1 [14]): Dose-Dependent Effect; Activity (PANC-1 [16]): 27.5%; Activity (PANC-1 [17]): 31.2%
10 | COc1ccc(/C=C/c2nnc(-c3[nH]nc4c3Cc3ccccc3-4)o2)cc1OC | 26 | 36.4 | 63 | 56.2 | 22.8 | 
11 | COc1cc(/C=C/c2nnc(-c3[nH]nc4c3Cc3cc(F)ccc3-4)o2)cc(OC)c1OC | 17.2 | 15.5 | 61 | 44.8 | 16.1 | 
12 | COc1ccc(/C=C/c2nnc(-c3[nH]nc4c3Cc3cc(F)ccc3-4)o2)cc1OC | 17.6 | 23 | 58 | 18.1 | 18.7 | 
13 | Nc1ccn([C@@H]2O[C@H](CO)[C@@H](O)C2(F)F)c(=O)n1 [GEMCITABINE] | 8 | 4.2 | 80 | 6.1 | 9.4 | 
14 | COc1cc(/C=C/c2nnc(-c3[nH]nc4c3Cc3ccccc3-4)o2)cc(OC)c1OC | 18.4 | 24.2 | 55 | 37.2 | 31.7 | 
15 | COc1cc2c(cc1OC)-c1n[nH]c(-c3nnc(/C=C/c4cc(OC)c(OC)c(OC)c4)o3)c1C2 | 13.5 | 18.4 | 77 | 14.4 | 57.4 | 
16 | COc1ccc(/C=C/c2nnc(-c3[nH]nc4c3Cc3ccccc3-4)o2)cc1 | 13.5 | 20.6 | 38 | 17.1 | 39.7 | 
17 | O=[N+]([O-])c1ccc(/C=C/c2nnc(-c3[nH]nc4c3Cc3ccccc3-4)o2)cc1 | 18.5 | 18.3 | 66 | 41.9 | 17.7 | 
18 | COc1ccc(/C=C/c2nnc(-c3[nH]nc4c3Cc3cc(OC)ccc3-4)o2)cc1 | 16.6 | 17.4 | 54 | 60.2 | 10.6 | 
19 | COc1ccc2c(c1)Cc1c-2n[nH]c1-c1nnc(/C=C/c2ccccc2)o1 | 12.8 | 26 | 65 | 67.6 | 13.1 | 

From ChEMBL document CHEMBL4834439, “New indenopyrazole linked oxadiazole conjugates as anti-pancreatic cancer agents: Design, synthesis, in silico studies including 3D-QSAR analysis” (Bioorg Med Chem Lett, 2021)
